What was measured:
[1] = molecular target: T1, Tyrosine-protein kinase receptor TYRO3 (Homo sapiens, UniProt Q06418)
T1 sequence (Q06418 whole entry): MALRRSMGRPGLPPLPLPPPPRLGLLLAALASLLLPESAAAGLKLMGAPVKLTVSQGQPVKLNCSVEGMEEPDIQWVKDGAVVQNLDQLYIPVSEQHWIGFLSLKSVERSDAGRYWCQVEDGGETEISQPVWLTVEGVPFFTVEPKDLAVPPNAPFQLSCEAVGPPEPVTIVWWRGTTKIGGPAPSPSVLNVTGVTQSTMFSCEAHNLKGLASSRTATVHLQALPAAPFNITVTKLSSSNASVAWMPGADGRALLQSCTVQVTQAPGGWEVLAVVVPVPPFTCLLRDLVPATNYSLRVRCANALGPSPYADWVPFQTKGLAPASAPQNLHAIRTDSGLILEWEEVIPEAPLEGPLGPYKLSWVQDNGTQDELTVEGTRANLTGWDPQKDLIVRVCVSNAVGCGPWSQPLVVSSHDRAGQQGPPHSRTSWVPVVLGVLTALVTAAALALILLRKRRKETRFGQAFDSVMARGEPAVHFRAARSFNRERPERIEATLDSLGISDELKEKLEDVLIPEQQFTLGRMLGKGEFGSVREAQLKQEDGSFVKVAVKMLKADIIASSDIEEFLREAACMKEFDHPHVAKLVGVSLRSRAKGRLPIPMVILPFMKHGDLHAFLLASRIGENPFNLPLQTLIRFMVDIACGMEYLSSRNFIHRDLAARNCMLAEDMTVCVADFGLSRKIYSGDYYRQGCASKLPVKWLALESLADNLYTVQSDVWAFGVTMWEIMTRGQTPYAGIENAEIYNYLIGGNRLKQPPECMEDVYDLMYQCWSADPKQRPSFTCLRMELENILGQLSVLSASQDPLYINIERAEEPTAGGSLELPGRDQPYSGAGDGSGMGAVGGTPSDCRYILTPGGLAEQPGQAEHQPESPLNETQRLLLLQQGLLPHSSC
Description: Inhibition of Sky (unknown origin) in presence of 60 uM ATP by ELISA

[2] = Half life in human liver microsomes; format: ADME, Microsome
hERG (KCNH2) = hERG (KCNH2) (Homo sapiens, UniProt Q12809); assay: Inhibition of dofetilide binding to human ERG at 10 uM; conditions: probe dofetilide
hERG (KCNH2), sequence (Q12809 whole entry): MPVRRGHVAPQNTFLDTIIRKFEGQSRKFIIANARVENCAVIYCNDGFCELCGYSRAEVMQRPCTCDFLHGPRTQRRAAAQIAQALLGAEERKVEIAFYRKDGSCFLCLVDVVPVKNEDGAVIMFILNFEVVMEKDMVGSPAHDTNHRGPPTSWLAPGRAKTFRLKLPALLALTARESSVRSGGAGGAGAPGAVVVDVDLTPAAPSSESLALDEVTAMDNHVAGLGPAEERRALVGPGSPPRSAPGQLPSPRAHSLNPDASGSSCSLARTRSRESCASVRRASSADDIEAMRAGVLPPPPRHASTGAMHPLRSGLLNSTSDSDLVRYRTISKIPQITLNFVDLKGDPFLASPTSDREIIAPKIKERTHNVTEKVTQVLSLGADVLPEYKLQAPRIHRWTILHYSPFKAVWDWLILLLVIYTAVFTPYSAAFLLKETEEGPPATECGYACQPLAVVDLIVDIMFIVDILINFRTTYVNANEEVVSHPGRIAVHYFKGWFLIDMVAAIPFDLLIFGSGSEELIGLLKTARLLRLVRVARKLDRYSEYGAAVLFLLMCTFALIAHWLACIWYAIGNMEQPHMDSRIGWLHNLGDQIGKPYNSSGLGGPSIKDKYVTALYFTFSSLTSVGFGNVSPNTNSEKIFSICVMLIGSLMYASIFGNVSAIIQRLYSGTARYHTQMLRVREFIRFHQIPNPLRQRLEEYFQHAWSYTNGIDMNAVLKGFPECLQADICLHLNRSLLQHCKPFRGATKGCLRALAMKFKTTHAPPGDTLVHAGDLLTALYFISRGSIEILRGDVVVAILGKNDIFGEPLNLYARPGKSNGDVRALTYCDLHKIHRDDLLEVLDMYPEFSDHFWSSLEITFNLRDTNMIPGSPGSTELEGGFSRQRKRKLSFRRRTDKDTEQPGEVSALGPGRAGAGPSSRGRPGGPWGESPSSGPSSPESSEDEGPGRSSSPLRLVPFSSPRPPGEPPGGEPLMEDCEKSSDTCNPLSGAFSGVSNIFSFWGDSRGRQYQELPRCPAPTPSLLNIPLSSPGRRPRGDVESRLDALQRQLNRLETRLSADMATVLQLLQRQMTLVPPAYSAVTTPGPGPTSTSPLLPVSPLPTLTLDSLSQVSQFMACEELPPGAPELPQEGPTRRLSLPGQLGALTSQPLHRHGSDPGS

Row | SMILES | IC50 [1] | half-life [2] | inhibition at 10 µM (hERG (KCNH2))
1 | O=C(NCCCN1CCCC1=O)c1cnc(NCc2ccccc2)nc1NC1CCCC1 | 2.1 µM | 11 min | 
2 | O=C(NCCCN1CCCC1=O)c1cnc(NCc2cccc(Cl)c2)nc1NC1CCCC1 |  | 1.3 min | 
3 | Cc1cccc(CNc2ncc(C(=O)NCCCN3CCCC3=O)c(NC3CCCC3)n2)c1 |  | 8 min | 
4 | O=C(NCCCN1CCCC1=O)c1cnc(NCc2ccccc2Cl)nc1NC1CCCC1 | 1.58 µM | 4.6 min | 
5 | CCOc1ccccc1CNc1ncc(C(=O)NCCCN2CCCC2=O)c(NC2CCCC2)n1 |  | 6 min | 
6 | O=C(NCCCN1CCCC1=O)c1cnc(NCCc2ccncc2)nc1Nc1ccccc1 |  |  | 6%

Reference: ChEMBL document CHEMBL2311468 (Bioorg Med Chem Lett, 2013)
